These molecules were tested on KRas G12D-mediated phosphorylation of ERK (assay: Inhibition of KRas G12D-mediated phosphorylation of ERK in AGS cells). Conditions: Homo sapiens; AGS cells expressing G12D, 3 hours, phospho-ERK normalized to GAPDH.
Format: cell-based
Procedure, shortened: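 Fixed, methanol-permeabilized; phospho-ERK (Thr202/Tyr204) by in-cell immunofluorescence normalized to GAPDH. Percent of DMSO control, IC50 by 4-parameter fit.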
CC(=O)N1CCC(Oc2nc(N3C[C@H]4CC[C@@H](C3)N4)c3cnc(-c4cc(O)cc5ccccc45)c(F)c3n2)CC1 [Example 78, 1-(4-((4-((1R,5S)-3,8-diazabicyclo[3.2.1]octan-3-yl)-8-fluoro-7-(3-hydroxynaphthalen-1-yl)pyrido[4,3-d]pyrimidin-2-yl)oxy)piperidin-1-yl)ethan-1-one] was tested, and the IC50 was over 16.7 µM. In the case of Oc1cc(-c2ncc3c(N4C[C@H]5CC[C@@H](C4)N5)nc(OCCC(F)(F)F)nc3c2F)c2ccccc2c1 [Example 81, 4-(4-((1R,5S)-3,8-diazabicyclo[3.2.1]octan-3-yl)-8-fluoro-2-(3,3,3-trifluoropropoxy)pyrido[4,3-d]pyrimidin-7-yl)naphthalen-2-ol], the IC50 is reported as 8.29 µM. Molecule [O-][S+]1CCC(Oc2nc(N3C[C@H]4CC[C@@H](C3)N4)c3cnc(-c4cc(O)cc5ccccc45)c(F)c3n2)CC1 (stereo partly drawn) [Example 82, 4-((4-((1R,5S)-3,8-diazabicyclo[3.2.1]octan-3-yl)-8-fluoro-7-(3-hydroxynaphthalen-1-yl)pyrido[4,3-d]pyrimidin-2-yl)oxy)tetrahydro-2H-thiopyran 1-oxide] has an IC50 of over 16.7 µM. In the case of Cc1nccn1CCOc1nc(N2CC3CCC(C2)N3)c2cnc(-c3cc(O)cc4ccccc34)c(F)c2n1 [Example 84, 4-(4-((1R,5S)-3,8-diazabicyclo[3.2.1]octan-3-yl)-8-fluoro-2-(2-(2-methyl-1H-imidazol-1-yl)ethoxy)pyrido[4,3-d]pyrimidin-7-yl)naphthalen-2-ol], the IC50 is reported as 5.72 µM. Work on CC(C)Cn1ccnc1CCOc1nc(N2C[C@H]3CC[C@@H](C2)N3)c2cnc(-c3cc(O)cc4ccccc34)c(F)c2n1 [Example 85, 4-(4-((1R,5S)-3,8-diazabicyclo[3.2.1]octan-3-yl)-8-fluoro-2-(2-(1-isobutyl-1H-imidazol-2-yl)ethoxy)pyrido[4,3-d]pyrimidin-7-yl)naphthalen-2-ol] yielded an IC50 of over 16.7 µM. For Cc1cccc(CCOc2nc(N3C[C@H]4CC[C@@H](C3)N4)c3cnc(-c4cc(O)cc5ccccc45)c(F)c3n2)n1 [Example 87, 4-(4-((1R,5S)-3,8-diazabicyclo[3.2.1]octan-3-yl)-8-fluoro-2-(2-(6-methylpyridin-2-yl)ethoxy)pyrido[4,3-d]pyrimidin-7-yl)naphthalen-2-ol], the IC50 was 10.6 µM. For CC(C)n1ccnc1CCOc1nc(N2C[C@H]3CC[C@@H](C2)N3)c2cnc(-c3cc(O)cc4ccccc34)c(F)c2n1 [Example 91, 4-(4-((1R,5S)-3,8-diazabicyclo[3.2.1]octan-3-yl)-8-fluoro-2-(2-(1-isopropyl-1H-imidazol-2-yl)ethoxy)pyrido[4,3-d]pyrimidin-7-yl)naphthalen-2-ol], the IC50 was 5.51 µM. Molecule Fc1c(-c2cccc3cccc(Cl)c23)ncc2c(N3C[C@H]4CC[C@@H](C3)N4)nc(OCC34CCCN3CC(F)(F)C4)nc12 (stereo partly drawn) [Example 93, 4-((1R,5S)-3,8-diazabicyclo[3.2.1]octan-3-yl)-7-(8-chloronaphthalen-1-yl)-2-((2,2-difluorotetrahydro-1H-pyrrolizin-7a(5H)-yl)methoxy)-8-fluoropyrido[4,3-d]pyrimidine bis(2,2,2-trifluoroacetate)] has an IC50 of over 16.7 µM. Work on Fc1ccc2cccc(-c3ncc4c(N5C[C@H]6CC[C@@H](C5)N6)nc(OCC56CCCN5CCC6)nc4c3F)c2c1Cl [Example 98, 4-((1R,5S)-3,8-diazabicyclo[3.2.1]octan-3-yl)-7-(8-chloro-7-fluoronaphthalen-1-yl)-8-fluoro-2-((tetrahydro-1H-pyrrolizin-7a(5H)-yl)methoxy)pyrido[4,3-d]pyrimidine bis(2,2,2-trifluoroacetate)] yielded an IC50 of 0.389 µM. Work on Oc1cc(-c2ncc3c(N4C[C@H]5CC[C@@H](C4)N5)nc(OCCc4ccc(F)cn4)nc3c2F)c2ccccc2c1 [Example 102, 4-(4-((1R,5S)-3,8-diazabicyclo[3.2.1]octan-3-yl)-8-fluoro-2-(2-(5-fluoropyridin-2-yl)ethoxy)pyrido[4,3-d]pyrimidin-7-yl)naphthalen-2-ol] yielded an IC50 of 7.96 µM. Fc1c(-c2cccc3cccc(Cl)c23)ncc2c(N3C[C@H]4CC[C@@H](C3)N4)nc(OCCCN3C[C@@H]4C[C@H]3CO4)nc12 [Example 103, (1S,4S)-5-(3-((4-((1R,5S)-3,8-diazabicyclo[3.2.1]octan-3-yl)-7-(8-chloronaphthalen-1-yl)-8-fluoropyrido[4,3-d]pyrimidin-2-yl)oxy)propyl)-2-oxa-5-azabicyclo[2.2.1]heptane] showed an IC50 of over 16.7 µM. Cn1ccnc1COc1nc(N2C[C@H]3CC[C@@H](C2)N3)c2cnc(-c3cc(O)cc4ccccc34)c(F)c2n1 [Example 104, 4-(4-((1R,5S)-3,8-diazabicyclo[3.2.1]octan-3-yl)-8-fluoro-2-((1-methyl-1H-imidazol-2-yl)methoxy)pyrido[4,3-d]pyrimidin-7-yl)naphthalen-2-ol] showed an IC50 of over 16.7 µM. Molecule Oc1cc(-c2ncc3c(N4C[C@H]5CC[C@@H](C4)N5)nc(OCCc4cccnc4)nc3c2F)c2ccccc2c1 [Example 106, 4-(4-((1R,5S)-3,8-diazabicyclo[3.2.1]octan-3-yl)-8-fluoro-2-(2-(pyridin-3-yl)ethoxy)pyrido[4,3-d]pyrimidin-7-yl)naphthalen-2-ol] has an IC50 of 3.1 µM. Molecule Oc1cc(-c2ncc3c(N4C[C@H]5CC[C@@H](C4)N5)nc(OCC45CCCN4CCC5)nc3c2F)c2ccccc2c1 [Example 109, 4-(4-((1R,5S)-3,8-diazabicyclo[3.2.1]octan-3-yl)-8-fluoro-2-((tetrahydro-1H-pyrrolizin-7a(5H)-yl)methoxy)pyrido[4,3-d]pyrimidin-7-yl)naphthalen-2-ol bis(2,2,2-trifluoroacetate)] has an IC50 of 0.331 µM. Cn1cncc1CCOc1nc(N2C[C@H]3CC[C@@H](C2)N3)c2cnc(-c3cc(O)cc4ccccc34)c(F)c2n1 [Example 110, 4-(4-((1R,5S)-3,8-diazabicyclo[3.2.1]octan-3-yl)-8-fluoro-2-(2-(1-methyl-1H-imidazol-5-yl)ethoxy)pyrido[4,3-d]pyrimidin-7-yl)naphthalen-2-ol] was tested, and the IC50 was over 16.7 µM. Molecule Cn1ccnc1CCOc1nc(N2C[C@H]3CC[C@@H](C2)N3)c2cnc(-c3cccc4cccc(Cl)c34)c(F)c2n1 [Example 114, 4-((1R,5S)-3,8-diazabicyclo[3.2.1]octan-3-yl)-7-(8-chloronaphthalen-1-yl)-8-fluoro-2-(2-(1-methyl-1H-imidazol-2-yl)ethoxy)pyrido[4,3-d]pyrimidine] has an IC50 of 10.3 µM. Work on CN1C[C@H](F)C[C@H]1COc1nc(N2C[C@H]3CC[C@@H](C2)N3)c2cnc(-c3cccc4cccc(Cl)c34)c(F)c2n1 [Example 115, 4-((1R,5S)-3,8-diazabicyclo[3.2.1]octan-3-yl)-7-(8-chloronaphthalen-1-yl)-8-fluoro-2-(((2S,4R)-4-fluoro-1-methylpyrrolidin-2-yl)methoxy)pyrido[4,3-d]pyrimidine] yielded an IC50 of 9.51 µM. For Oc1cc(-c2ncc3c(N4C[C@H]5CC[C@@H](C4)N5)nc(N4CCCC4)nc3c2F)c2ccccc2c1 [Example 118, 4-(4-((1R,5S)-3,8-diazabicyclo[3.2.1]octan-3-yl)-8-fluoro-2-(pyrrolidin-1-yl)pyrido[4,3-d]pyrimidin-7-yl)naphthalen-2-ol 2,2,2-trifluoroacetate], the IC50 was over 16.7 µM. In the case of Oc1cc(-c2ncc3c(N4C[C@H]5CC[C@@H](C4)N5)nc(N4CCC4)nc3c2F)c2ccccc2c1 [Example 119, 4-(2-(azetidin-1-yl)-4-((1R,5S)-3,8-diazabicyclo[3.2.1]octan-3-yl)-8-fluoropyrido[4,3-d]pyrimidin-7-yl)naphthalen-2-ol 2,2,2-trifluoroacetate], the IC50 is reported as 3.7 µM. CN(C)C1CN(c2nc(N3C[C@H]4CC[C@@H](C3)N4)c3cnc(-c4cc(O)cc5ccccc45)c(F)c3n2)C1 [Example 120, 4-(4-((1R,5S)-3,8-diazabicyclo[3.2.1]octan-3-yl)-2-(3-(dimethylamino)azetidin-1-yl)-8-fluoropyrido[4,3-d]pyrimidin-7-yl)naphthalen-2-ol bis(2,2,2-trifluoroacetate)] showed an IC50 of 2.09 µM. OC[C@@H]1CCN1c1nc(N2C[C@H]3CC[C@@H](C2)N3)c2cnc(-c3cc(O)cc4ccccc34)c(F)c2n1 [Example 121, 4-(4-((1R,5S)-3,8-diazabicyclo[3.2.1]octan-3-yl)-8-fluoro-2-((S)-2-(hydroxymethyl)azetidin-1-yl)pyrido[4,3-d]pyrimidin-7-yl)naphthalen-2-ol 2,2,2-trifluoroacetate] gave an IC50 of 4.08 µM. Molecule CN(C)C1CN(c2nc(N3C[C@H]4CC[C@@H](C3)N4)c3cnc(-c4cccc5cccc(Cl)c45)c(F)c3n2)C1 [Example 122, 1-(4-((1R,5S)-3,8-diazabicyclo[3.2.1]octan-3-yl)-7-(8-chloronaphthalen-1-yl)-8-fluoropyrido[4,3-d]pyrimidin-2-yl)-N,N-dimethylazetidin-3-amine] has an IC50 of over 16.7 µM. For CC1(N)CN(c2nc(N3C[C@H]4CC[C@@H](C3)N4)c3cnc(-c4cc(O)cc5ccccc45)c(F)c3n2)C1 [Example 124, 4-(2-(3-amino-3-methylazetidin-1-yl)-4-((1R,5S)-3,8-diazabicyclo[3.2.1]octan-3-yl)-8-fluoropyrido[4,3-d]pyrimidin-7-yl)naphthalen-2-ol], the IC50 was 11.1 µM. With CCC1(N)CN(c2nc(N3C[C@H]4CC[C@@H](C3)N4)c3cnc(-c4cc(O)cc5ccccc45)c(F)c3n2)C1 [Example 126, 4-(2-(3-amino-3-ethylazetidin-1-yl)-4-((1R,5S)-3,8-diazabicyclo[3.2.1]octan-3-yl)-8-fluoropyrido[4,3-d]pyrimidin-7-yl)naphthalen-2-ol] the IC50 was 3.47 µM. CN(C)C1(C)CN(c2nc(N3C[C@H]4CC[C@@H](C3)N4)c3cnc(-c4cccc5cccc(Cl)c45)c(F)c3n2)C1 [Example 127, 1-(4-((1R,5S)-3,8-diazabicyclo[3.2.1]octan-3-yl)-7-(8-chloronaphthalen-1-yl)-8-fluoropyrido[4,3-d]pyrimidin-2-yl)-N,N,3-trimethylazetidin-3-amine] showed an IC50 of over 16.7 µM. In the case of CN1CC(COc2nc(N3C[C@H]4CC[C@@H](C3)N4)c3cnc(-c4cccc5cccc(Cl)c45)c(F)c3n2)CC1=O (stereo partly drawn) [Example 131, 4-(((4-((1R,5S)-3,8-diazabicyclo[3.2.1]octan-3-yl)-7-(8-chloronaphthalen-1-yl)-8-fluoropyrido[4,3-d]pyrimidin-2-yl)oxy)methyl)-1-methylpyrrolidin-2-one], the IC50 is reported as over 16.7 µM.
